The supplement of paper PMC11061612

Assays:
Capivasertib = compound: C1CN(CCC1(C(=O)N[C@@H](CCO)C2=CC=C(C=C2)Cl)N)C3=NC=NC4=C3C=CN4 [Capivasertib]; conditions: max 10 µM
Outline: (§1)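 Following 24 hours at 37°C and 5% CO2, cancer cell lines in 1536-well plates with 7.5 μl DMEM/F12 or RPMI and 10% FBS were dosed for 72 hours, final DMSO typically being 0.2%. CellTiter-Glo 2.0 luminescence, scaled between blank-well and DMSO-well means, gave the viability readout. Dose responses were fitted to a two-parameter logistic curve with a non-linear mixed effects model, and the single-agent IC50 was derived from this fit.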

AZD1775 = compound: C=CCn1c(=O)c2cnc(Nc3ccc(N4CCN(C)CC4)cc3)nc2n1-c1cccc(C(C)(C)O)n1 [AZD1775]; conditions: max 3 µM
Outline: as §1

Trametinib = compound: CC(=O)Nc1cccc(-n2c(=O)n(C3CC3)c(=O)c3c(Nc4ccc(I)cc4F)n(C)c(=O)c(C)c32)c1 [Trametinib]; conditions: max 1 µM
Outline: as §1

Palbociclib = compound: CC(=O)c1c(C)c2cnc(Nc3ccc(N4CCNCC4)cn3)nc2n(C2CCCC2)c1=O [Palbociclib]; conditions: max 10 µM
Outline: as §1

AZD1390 = compound: CC(C)n1c(=O)n(C)c2cnc3cc(F)c(-c4ccc(OCCCN5CCCCC5)nc4)cc3c21 [AZD1390]; conditions: max 0.3 µM
Outline: as §1

Venetoclax = compound: CC1(C)CCC(CN2CCN(c3ccc(C(=O)NS(=O)(=O)c4ccc(NCC5CCOCC5)c([N+](=O)[O-])c4)c(Oc4cnc5[nH]ccc5c4)c3)CC2)=C(c2ccc(Cl)cc2)C1 [Venetoclax]; conditions: max 1 µM
Outline: as §1

Dasatinib = compound: CC1=C(C(=CC=C1)Cl)NC(=O)C2=CN=C(S2)NC3=CC(=NC(=N3)C)N4CCN(CC4)CCO [Dasatinib]; conditions: max 2 µM
Outline: as §1

SG3199 = compound: CC1=CN2[C@@H](C1)C=NC3=CC(=C(C=C3C2=O)OC)OCCCCCOC4=C(C=C5C(=C4)N=C[C@@H]6CC(=CN6C5=O)C)OC [SG3199]; conditions: max 0.001 µM
Outline: as §1

AZD2811 = compound: CCN(CCO)CCCOc1ccc2c(Nc3cc(CC(=O)Nc4cccc(F)c4)[nH]n3)ncnc2c1 [AZD2811]; conditions: max 1 µM
Outline: as §1

SN-38 = compound: CCc1c2c(nc3ccc(O)cc13)-c1cc3c(c(=O)n1C2)COC(=O)[C@]3(O)CC [SN-38]; conditions: max 0.3 µM
Outline: as §1

AZD0156 = compound: CN(C)CCCOc1ccc(-c2ccc3ncc4c(c3c2)n(C2CCOCC2)c(=O)n4C)cn1 [AZD0156]; conditions: max 3 µM
Outline: as §1

AZD4320 = compound: CN(CC[C@H](CSC1=CC=CC=C1)NC2=C(C=C(C=C2)S(=O)(=O)NC(=O)C3=CC=C(C=C3)N4CCC(CC4)[C@H](C5=CC=CC=C5C6=CC=C(C=C6)Cl)O)S(=O)(=O)C(F)(F)F)CCO [AZD4320]; conditions: max 1 µM
Outline: as §1

Alisertib = compound: COc1cc(Nc2ncc3c(n2)-c2ccc(Cl)cc2C(c2c(F)cccc2OC)=NC3)ccc1C(=O)O [Alisertib]; conditions: max 10 µM
Outline: as §1

Gefitinib = compound: COc1cc2ncnc(Nc3ccc(F)c(Cl)c3)c2cc1OCCCN1CCOCC1 [Gefitinib]; conditions: max 10 µM
Outline: as §1

Prexasertib = compound: COc1cccc(OCCCN)c1-c1cc(Nc2cnc(C#N)cn2)n[nH]1 [Prexasertib]; conditions: max 1 µM
Outline: as §1

Doxorubicin = compound: COc1cccc2c1C(=O)c1c(O)c3c(c(O)c1C2=O)C[C@@](O)(C(=O)CO)C[C@@H]3O[C@H]1C[C@H](N)[C@H](O)[C@H](C)O1 [Doxorubicin]; conditions: max 1 µM
Outline: as §1

AZD5153 = compound: COc1nnc2ccc(N3CCC(c4ccc(OCCN5CCN(C)C(=O)[C@H]5C)cc4)CC3)nn12 [AZD5153]; conditions: max 1 µM
Outline: as §1

Lapatinib = compound: CS(=O)(=O)CCNCc1ccc(-c2ccc3ncnc(Nc4ccc(OCc5cccc(F)c5)c(Cl)c4)c3c2)o1 [Lapatinib]; conditions: max 10 µM
Outline: as §1

AZD8186 = compound: C[C@@H](Nc1cc(F)cc(F)c1)c1cc(C(=O)N(C)C)cc2c(=O)cc(N3CCOCC3)oc12 [AZD8186]; conditions: max 3 µM
Outline: as §1

Crizotinib = compound: C[C@@H](Oc1cc(-c2cnn(C3CCNCC3)c2)cnc1N)c1c(Cl)ccc(F)c1Cl [Crizotinib]; conditions: max 10 µM
Outline: as §1

Savolitinib = compound: C[C@@H](c1ccc2nccn2c1)n1nnc2ncc(-c3cnn(C)c3)nc21 [Savolitinib]; conditions: max 1 µM
Outline: as §1

AZD6738 = compound: C[C@@H]1COCCN1C2=NC(=NC(=C2)C3(CC3)[S@](=N)(=O)C)C4=C5C=CNC5=NC=C4 [AZD6738]; conditions: max 10 µM
Outline: as §1

AZD5991 = compound: Cc1c2c(nn1C)CSCc1cc(n(C)n1)CSc1cc(c3ccccc3c1)OCCCc1c(C(=O)O)n(C)c3c-2c(Cl)ccc13 [AZD5991]; conditions: max 1 µM
Outline: as §1

AZD7648 = compound: Cc1cc2ncnn2cc1Nc1ncc2c(n1)n(C1CCOCC1)c(=O)n2C [AZD7648]; conditions: max 10 µM
Outline: as §1

Taselisib = compound: Cc1nc(-c2cn3c(n2)-c2ccc(-c4cnn(C(C)(C)C(N)=O)c4)cc2OCC3)n(C(C)C)n1 [Taselisib]; conditions: max 10 µM
Outline: as §1

Selumetinib = compound: Cn1cnc2c(F)c(Nc3ccc(Br)cc3Cl)c(C(=O)NOCCO)cc21 [Selumetinib]; conditions: max 10 µM
Outline: as §1

MK-2206 = compound: NC1(c2ccc(-c3nc4ccn5c(=O)[nH]nc5c4cc3-c3ccccc3)cc2)CCC1 [MK-2206]; conditions: max 10 µM
Outline: as §1

Olaparib = compound: O=C(c1cc(Cc2n[nH]c(=O)c3ccccc23)ccc1F)N1CCN(C(=O)C2CC2)CC1 [Olaparib]; conditions: max 10 µM
Outline: as §1

Row | Cell Line | IC50, cell viability 72 h (Capivasertib) [µM] | IC50, cell viability 72 h (AZD1775) [µM] | IC50, cell viability 72 h (Trametinib) [µM] | IC50, cell viability 72 h (Palbociclib) [µM] | IC50, cell viability 72 h (AZD1390) [µM] | IC50, cell viability 72 h (Venetoclax) [µM] | IC50, cell viability 72 h (Dasatinib) [µM] | IC50, cell viability 72 h (SG3199) [µM] | IC50, cell viability 72 h (AZD2811) [µM] | IC50, cell viability 72 h (SN-38) [µM] | IC50, cell viability 72 h (AZD0156) [µM] | IC50, cell viability 72 h (AZD4320) [µM] | IC50, cell viability 72 h (Alisertib) [µM] | IC50, cell viability 72 h (Gefitinib) [µM] | IC50, cell viability 72 h (Prexasertib) [µM] | IC50, cell viability 72 h (Doxorubicin) [µM] | IC50, cell viability 72 h (AZD5153) [µM] | IC50, cell viability 72 h (Lapatinib) [µM] | IC50, cell viability 72 h (AZD8186) [µM] | IC50, cell viability 72 h (Crizotinib) [µM] | IC50, cell viability 72 h (Savolitinib) [µM] | IC50, cell viability 72 h (AZD6738) [µM] | IC50, cell viability 72 h (AZD5991) [µM] | IC50, cell viability 72 h (AZD7648) [µM] | IC50, cell viability 72 h (Taselisib) [µM] | IC50, cell viability 72 h (Selumetinib) [µM] | IC50, cell viability 72 h (MK-2206) [µM] | IC50, cell viability 72 h (Olaparib) [µM]
1 | RH-1 (Ewing's Sarcoma) | > 10 | 0.0951 | > 1 | > 10 | > 0.3 | > 1 | > 2 | > 0.001 | 0.0226 | 0.00435 | > 3 | 0.83 | 0.039 | > 10 | 0.0184 | 0.0561 | > 1 | > 10 | > 3 | 2.25 | > 1 | 2 | 0.55 | > 10 | 6.26 | > 10 | > 10 | > 10
2 | SNU-C5 (Colorectal Carcinoma) | > 10 | 0.507 | 0.563 | > 10 | > 0.3 | > 1 | > 2 | > 0.001 | > 1 | 0.0435 | > 3 | > 1 | 9.36 | > 10 | 0.0218 | > 1 | 0.578 | > 10 | > 3 | > 10 | > 1 | 4 | > 1 | > 10 | 2.01 | > 10 |  | > 10
3 | SUIT-2 (Pancreatic Carcinoma) | > 10 | 1.86 | 0.478 | > 10 | > 0.3 | > 1 | > 2 | > 0.001 | > 1 | 0.0326 | > 3 | > 1 | > 10 | > 10 | 0.178 | > 1 | > 1 | > 10 | > 3 | > 10 | > 1 | > 10 | > 1 | > 10 | > 10 | > 10 | > 10 | > 10
4 | SW756 (Cervical Carcinoma) | > 10 | > 3 | > 1 | > 10 | > 0.3 | > 1 | > 2 | > 0.001 | > 1 | 0.0323 | > 3 | > 1 | > 10 | > 10 | > 1 | > 1 | > 1 | > 10 | > 3 | > 10 | > 1 | > 10 | > 1 | > 10 | > 10 | > 10 | > 10 | > 10
5 | SW780 (Bladder Carcinoma) | > 10 | > 3 | > 1 | > 10 | > 0.3 | > 1 | > 2 | > 0.001 | > 1 | 0.247 | > 3 | > 1 | > 10 | > 10 | > 1 | > 1 | > 1 | > 10 | > 3 | > 10 | > 1 | > 10 | > 1 | > 10 | > 10 | > 10 | > 10 | > 10
6 | TGBC24TKB (Biliary Tract Carcinoma) | > 10 | 0.815 | 0.933 | > 10 | > 0.3 | > 1 | > 2 | > 0.001 | 0.923 | > 0.3 | > 3 | > 1 | 1.86 | > 10 | 0.0494 | > 1 | 0.665 | 8.01 | > 3 | 9.9 | > 1 | 7.4 | > 1 | > 10 | 0.561 | > 10 | > 10 | > 10
